This passage reports IC50 results from patent US20240101572A1, “DIHYDROOXADIAZINONE COMPOUND AND PHARMACEUTICAL USE THEREOF” (Japan Tobacco Inc., priority 2022, published 2024).

Each structure is given as a SMILES string.

One experiment concerns the target full-length human PLD1 (Homo sapiens (Human), UniProt Q13393). As to the kind of experiment: Evaluation of human PLD1 enzyme inhibitory activity (Amplex Red / choline oxidase fluorescence). Format: biochemical. The note with it: full-length human PLD1 enzyme; read-out: PLD1 IC50. A digest of the protocol: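 Fluorescence read-out couples choline to Amplex Red via choline oxidase and peroxidase after a 60 min room-temperature reaction. Enzyme: FLAG-tagged full-length human PLD1 from Expi293F cells, anti-FLAG purified; substrate diheptanoyl phosphatidylcholine; HEPES pH 7.5 assay buffer with 0.01% NP-40, 0.1% BSA, 5% DMSO final.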

The target in another experiment is full-length human PLD2 (Homo sapiens (Human), UniProt O14939). As to the kind of experiment: Evaluation of human PLD2 enzyme inhibitory activity (Amplex Red / choline oxidase fluorescence). Format: biochemical. The conditions noted are these: full-length human PLD2 enzyme; read-out: PLD2 IC50. The essentials: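 Released choline was read by Amplex Red fluorescence coupled to choline oxidase and HRP after a 60 min room-temperature reaction. Substrate was diheptanoyl phosphatidylcholine, added as a 6 mmol/L solution, and enzyme was FLAG-tagged full-length human PLD2 from Expi293F, added as a 6 nmol/L solution. Buffer was 50 mM HEPES pH 7.5 with 5% final DMSO.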
full-length human PLD2, sequence (O14939 whole entry): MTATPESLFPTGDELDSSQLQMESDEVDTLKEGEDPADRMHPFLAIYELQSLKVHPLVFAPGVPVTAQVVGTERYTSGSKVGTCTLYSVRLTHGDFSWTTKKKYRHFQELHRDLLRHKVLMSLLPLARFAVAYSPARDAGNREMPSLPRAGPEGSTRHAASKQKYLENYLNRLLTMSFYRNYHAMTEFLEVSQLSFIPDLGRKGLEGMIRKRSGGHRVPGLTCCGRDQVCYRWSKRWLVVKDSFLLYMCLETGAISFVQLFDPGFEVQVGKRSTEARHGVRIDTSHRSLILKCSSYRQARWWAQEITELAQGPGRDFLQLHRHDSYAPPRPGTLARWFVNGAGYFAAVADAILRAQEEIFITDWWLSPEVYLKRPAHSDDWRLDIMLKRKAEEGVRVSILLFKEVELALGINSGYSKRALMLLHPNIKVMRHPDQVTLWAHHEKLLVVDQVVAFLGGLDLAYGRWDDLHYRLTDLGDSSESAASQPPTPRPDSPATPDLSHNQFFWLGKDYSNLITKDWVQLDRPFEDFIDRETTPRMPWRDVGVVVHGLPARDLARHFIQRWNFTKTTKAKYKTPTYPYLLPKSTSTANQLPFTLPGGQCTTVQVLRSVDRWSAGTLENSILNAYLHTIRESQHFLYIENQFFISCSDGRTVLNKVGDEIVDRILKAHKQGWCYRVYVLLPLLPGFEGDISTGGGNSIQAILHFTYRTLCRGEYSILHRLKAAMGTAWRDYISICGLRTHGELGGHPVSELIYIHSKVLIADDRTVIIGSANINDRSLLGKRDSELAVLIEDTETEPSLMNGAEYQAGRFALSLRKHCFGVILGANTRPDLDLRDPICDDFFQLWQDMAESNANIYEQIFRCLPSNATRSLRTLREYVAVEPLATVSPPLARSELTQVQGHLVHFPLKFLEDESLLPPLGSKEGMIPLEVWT

full-length human PLD1, sequence (Q13393 other isoform, or with tags, fused parts or gaps): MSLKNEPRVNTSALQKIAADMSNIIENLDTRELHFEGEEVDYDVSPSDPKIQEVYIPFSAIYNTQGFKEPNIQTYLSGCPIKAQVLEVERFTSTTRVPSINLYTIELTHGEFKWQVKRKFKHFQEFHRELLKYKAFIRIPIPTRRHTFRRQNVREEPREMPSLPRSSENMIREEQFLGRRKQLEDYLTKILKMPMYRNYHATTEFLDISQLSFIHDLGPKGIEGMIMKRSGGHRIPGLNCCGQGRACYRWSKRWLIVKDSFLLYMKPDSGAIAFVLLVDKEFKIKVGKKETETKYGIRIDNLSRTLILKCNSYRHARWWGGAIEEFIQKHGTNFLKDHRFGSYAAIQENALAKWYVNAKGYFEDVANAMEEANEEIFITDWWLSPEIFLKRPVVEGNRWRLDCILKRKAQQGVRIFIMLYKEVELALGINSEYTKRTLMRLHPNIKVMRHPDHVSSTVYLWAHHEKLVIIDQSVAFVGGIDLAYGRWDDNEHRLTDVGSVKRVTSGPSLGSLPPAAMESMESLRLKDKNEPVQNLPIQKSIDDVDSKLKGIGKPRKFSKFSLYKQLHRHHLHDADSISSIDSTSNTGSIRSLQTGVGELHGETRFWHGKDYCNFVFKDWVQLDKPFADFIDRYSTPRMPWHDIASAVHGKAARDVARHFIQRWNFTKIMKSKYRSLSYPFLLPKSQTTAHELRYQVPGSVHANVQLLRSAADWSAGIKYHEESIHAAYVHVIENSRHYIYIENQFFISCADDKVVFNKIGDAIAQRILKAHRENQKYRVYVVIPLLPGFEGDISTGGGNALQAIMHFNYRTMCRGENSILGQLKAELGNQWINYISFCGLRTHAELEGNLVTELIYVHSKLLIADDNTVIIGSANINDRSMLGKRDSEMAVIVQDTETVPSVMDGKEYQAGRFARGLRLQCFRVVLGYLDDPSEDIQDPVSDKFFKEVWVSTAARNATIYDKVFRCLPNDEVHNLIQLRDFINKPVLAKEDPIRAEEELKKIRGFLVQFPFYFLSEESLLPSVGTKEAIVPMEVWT

Consider `COc1cc(C)c(C2=NNC(=O)O[C@]23CC[C@@H](C[C@H](C)NC(=O)N2CCn4c(nnc4C(F)(F)F)C2)CC3)cn1` [Example 259], for which the values for the IC50 at full-length human PLD1 and at full-length human PLD2 were 1450 nM and 2500 nM, respectively.

As for `C[C@@H](CN1CCC2(CC1)OC(=O)NN=C2c1cc(C#N)ccc1Br)NC(=O)C1CCCO1` (mixture of isomers) [Example 2-048], the values for the half-inhibitory concentration (IC50) on full-length human PLD1 and on full-length human PLD2 were 644 nM and 1010 nM, respectively.

As to `Cc1cc(C(=O)N[C@@H](C)C[C@H]2CC[C@]3(CC2)OC(=O)NN=C3c2cc(OC(F)F)ccc2C)[nH]n1` [Example 215], the IC50 on full-length human PLD1 and on full-length human PLD2 was under 10 nM throughout.

With `CNC(=O)C(=O)N[C@@H](C)C[C@H]1CC[C@]2(CC1)OC(=O)NN=C2c1cc(OC(F)F)ccc1Br` [Example 184], the IC50 on full-length human PLD1 and at full-length human PLD2 was under 10 nM in each case.

In the case of `C[C@@H](C[C@H]1CC[C@]2(CC1)OC(=O)NN=C2c1cccc2c1OCC2)NC(=O)c1cc(Cl)no1` [Example 108], the IC50 (in general, the midpoint of a concentration-inhibition curve) on full-length human PLD1 was 25 nM; at full-length human PLD2, 38 nM.

As for `CNC(=O)C(=O)N[C@@H](C)C[C@H]1CC[C@]2(CC1)OC(=O)NN=C2c1cc(C(F)(F)F)ncc1Br` [Example 2-075], the IC50 on full-length human PLD1 was 16 nM; on full-length human PLD2, under 10 nM.

In the case of `C[C@@H](C[C@H]1CC[C@]2(CC1)OC(=O)NN=C2c1ccc(F)cc1Br)NC(=O)C(F)F` [Example 211], the values for the IC50 on full-length human PLD1 and on full-length human PLD2 were 102 nM and 429 nM, respectively.

Regarding `CNC(=O)C(=O)N[C@@H](C)C[C@]1(F)CC[C@@]2(CC1)OC(=O)NN=C2c1cc(C#N)ccc1Br` [Example 310], the figures for the IC50 at full-length human PLD1 and on full-length human PLD2 were 14 nM and under 10 nM, respectively.

Turning to `CNC(=O)C(=O)N[C@@H](C)C[C@H]1CC[C@]2(CC1)OC(=O)NN=C2c1ccc(Br)cc1Br` [Example 60], the IC50 at full-length human PLD1 and at full-length human PLD2 was under 10 nM each time.

For the molecule `C[C@@H](C[C@H]1CC[C@]2(CC1)OC(=O)NN=C2c1cnc(N2CCOCC2)cc1Cl)NC(=O)N1CCn2nccc2C1` [Example 275], the IC50 was 25 nM on full-length human PLD1 and under 10 nM at full-length human PLD2.

In the case of `C[C@@H](C[C@H]1CC[C@]2(CC1)OC(=O)NN=C2c1ccc(C#N)cc1Br)NC(=O)N1CCn2nccc2C1` [Example 270], the IC50 is 17 nM at full-length human PLD1 and under 10 nM at full-length human PLD2.

Turning to `CNC(=O)C(=O)N[C@@H](C)C[C@H]1CC[C@]2(CC1)OC(=O)NN=C2c1cnc(I)cc1C` [Example 172], the values for the IC50 on full-length human PLD1 and at full-length human PLD2 were 23 nM and 12 nM, respectively.

`COc1cc(C)c(C2=NNC(=O)O[C@]23CC[C@@H](C[C@H](C)NC(=O)N2CCc4cccnc4C2)CC3)cn1` [Example 258]: the IC50 at full-length human PLD1 was 186 nM; on full-length human PLD2 it was 249 nM.

For the molecule `C[C@@H](C[C@H]1CC[C@]2(CC1)OC(=O)NN=C2c1ccc(F)cc1I)NC(=O)C(=O)NC1CC1` [Example 177], the IC50 is 10 nM on full-length human PLD1 and under 10 nM at full-length human PLD2.

Consider `CNC(=O)C(=O)N[C@@H](C)C[C@H]1CC[C@]2(CC1)OC(=O)NN=C2c1ccccc1C` [Example 119], for which the IC50 at full-length human PLD1 was 11 nM; at full-length human PLD2 it was under 10 nM.

`C[C@@H](CN1CCC2(CC1)OC(=O)NN=C2c1cc(C#N)ccc1Br)NC(=O)/C=C/C(=O)ON1C(=O)CCC1=O` [Example 2-042]: the IC50 was 3020 nM at full-length human PLD1 and 383 nM at full-length human PLD2.

`CNC(=O)C(=O)N[C@@H](C)C[C@H]1CC[C@]2(CC1)OC(=O)NN=C2c1ccc(C)cc1C` [Example 145]: the results for the IC50 at full-length human PLD1 and at full-length human PLD2 were 17 nM and under 10 nM, respectively.

In the case of `CNC(=O)C(=O)N[C@@H](C)C[C@H]1CC[C@]2(CC1)OC(=O)NN=C2c1ccc(OCC(F)F)cc1Br` [Example 85], the values for the IC50 on full-length human PLD1 and on full-length human PLD2 were 12 nM and under 10 nM, respectively.

In the case of `C[C@@H](CN1CCC2(CC1)OC(=O)NN=C2c1ccc(F)cc1Br)NC(=O)N1CCC2(CC2)C1` [Example 284], the values for the IC50 on full-length human PLD1 and on full-length human PLD2 were 61 nM and 40 nM, respectively.
